Values after ≈ are worked out from the molar mass of the structure shown.
Experiments:
Test in all cases: ≥ marks a high value that may be exact or a test limit, other limits are often not marked, values filed in µg/mL are converted to µM
[1] = tested on: Escherichia coli K88
[2] = tested on: Pseudomonas aeruginosa ATCC 27853
[3] = tested on: Salmonella enterica subsp. enterica serovar Typhimurium ATCC 14028
[4] = tested on: Staphylococcus aureus ATCC 25923
[5] = tested on: Salmonella enterica subsp. enterica serovar Pullorum ATCC 7913
[6] = tested on: Salmonella enterica subsp. enterica serovar Typhimurium C77-31
[7] = tested on: Staphylococcus aureus ATCC 43300
[8] = tested on: Escherichia coli 078
[9] = tested on: Escherichia coli K99
[10] = tested on: Candida tropicalis CGMCC 2.1975
[11] = tested on: Candida parapsilosis CGMCC 2.3989
[12] = tested on: Candida albicans CGMCC 2.2086
[13] = tested on: Escherichia coli UB1005
[14] = tested on: Staphylococcus epidermidis ATCC 12228
[15] = tested on: Escherichia coli K12 MG1655
[16] = tested on: Lactococcus lactis MG1363
[17] = tested on: Escherichia coli INV-a
[18] = tested on: Salmonella enterica subsp. enterica serovar Enteritidis MH91989
[19] = tested on: Escherichia coli JJ2489
[20] = tested on: Escherichia coli
[21] = tested on: Salmonella enterica subsp. enterica serovar Newport
[22] = tested on: Salmonella typhimurium SL1344
[23] = tested on: Escherichia coli MC1041
[24] = tested on: Escherichia coli J2210
[25] = tested on: Salmonella enterica serovar Tennessee
[26] = tested on: Escherichia coli BW25113
[27] = tested on: Escherichia coli JW0368 ΔsbmA
[28] = tested on: Salmonella enterica subsp. enterica serovar Infantis
[29] = tested on: Escherichia coli JW2778 ΔygdD
[30] = tested on: Escherichia coli JW0013
[31] = tested on: Pseudomonas aeruginosa PAO1
[32] = tested on: Porphyromonas gingivalis W50
[33] = tested on: Escherichia coli DH5alpha
[34] = tested on: Staphylococcus aureus ATCC 29213
[35] = tested on: Salmonella enterica subsp. enterica serovar Pullorum C79-13
[36] = tested on: Lacticaseibacillus rhamnosus 1.0911
[37] = tested on: Lacticaseibacillus rhamnosus 1.0936
[38] = tested on: Lacticaseibacillus rhamnosus 8014
[39] = tested on: Streptococcus agalactiae BNCC 185941
[40] = tested on: Escherichia coli ATCC 25922
[41] = tested on: Lacticaseibacillus rhamnosus 1.9021
[42] = tested on: Escherichia coli O157:H7 CICC 21530
[43] = tested on: Salmonella enterica subsp. enterica serovar Choleraesuis CVCC 503
[44] = tested on: Listeria monocytogenes KCTC 19111
[45] = tested on: Salmonella typhimurium KCTC 1926
[46] = tested on: Pseudomonas aeruginosa ATCC 15692
[47] = tested on: Staphylococcus epidermidis KCTC 1917

With `CC[C@H](C)[C@H](NC(=O)[C@H](CCCN=C(N)N)NC(=O)[C@H](C)NC(=O)[C@H](C)N)C(=O)N[C@H](C(=O)N[C@@H](CC(C)C)C(=O)N[C@@H](CCCN=C(N)N)C(=O)N[C@H](C(=O)N[C@@H](CCCN=C(N)N)C(=O)N[C@@H](Cc1ccccc1)C(=O)N[C@@H](CCCN=C(N)N)C(N)=O)[C@@H](C)O)[C@@H](C)CC` [AARIILRTRFR] the MIC [1] was 4 µM (≈ 5.49 µg/mL), the MIC [2] was over 128 µM and the MIC [3] was 16 µM (≈ 21.9 µg/mL). The MIC [4] was 16 µM (≈ 21.9 µg/mL), the MIC [5] was 8 µM (≈ 11 µg/mL) and the MIC [6] was 16 µM (≈ 21.9 µg/mL). The MIC [7] was 16 µM (≈ 21.9 µg/mL), the MIC [8] was 4 µM (≈ 5.49 µg/mL) and the MIC [9] was 4 µM (≈ 5.49 µg/mL). It also gave an MIC [10] of at least 32 µM, an MIC [11] of at least 64 µM and an MIC [12] of at least 128 µM. For the same compound, the MIC [13] was 4 µM (≈ 5.49 µg/mL) and the MIC [14] was 16 µM (≈ 21.9 µg/mL).
Work on `CC[C@H](C)[C@H](NC(=O)[C@H](CCCCN)NC(=O)[C@H](CCCCN)NC(=O)[C@@H](NC(=O)[C@@H](NC(=O)[C@H](CCCN=C(N)N)NC(=O)[C@H](CCCCN)NC(=O)[C@H](CCC(=O)O)NC(=O)CNC(=O)[C@H](C)N)[C@@H](C)CC)[C@@H](C)CC)C(=O)N[C@@H](CC(=O)O)C(=O)N[C@@H](CCC(=O)O)C(=O)N[C@@H](C)C(=O)N[C@@H](Cc1ccccc1)C(=O)N[C@@H](CCC(N)=O)C(=O)O` [AGEKRIIKKIDEAFQ] yielded an MIC [15] of at least 73.3 µM.
`CC[C@H](C)[C@H](NC(=O)CNC(=O)[C@H](CCCCN)NC(=O)[C@H](Cc1c[nH]c2ccccc12)NC(=O)[C@H](CC(N)=O)NC(=O)[C@H](C)N)C(=O)N[C@@H](C)C(=O)N[C@@H](C)C(=O)N[C@@H](CCSC)C(=O)N[C@@H](C)C(=O)N[C@@H](CCCCN)C(=O)N[C@@H](CCCCN)C(=O)N[C@@H](CC(C)C)C(=O)N[C@@H](CC(C)C)C(N)=O` [ANWKGIAAMAKKLL] gave an MIC [16] of 18 µM (≈ 27.3 µg/mL) and an MIC [17] of at least 33 µM.
Work on `CC(C)C[C@H](NC(=O)[C@H](CCCN=C(N)N)NC(=O)[C@@H]1CCCN1C(=O)[C@H](Cc1cnc[nH]1)NC(=O)[C@@H]1CCCN1C(=O)[C@@H]1CCCN1C(=O)[C@H](CCCN=C(N)N)NC(=O)[C@@H]1CCCN1C(=O)[C@H](CCC(N)=O)NC(=O)[C@@H]1CCCN1C(=O)[C@H](CCCCN)NC(=O)[C@H](Cc1ccc(O)cc1)NC(=O)[C@@H](NC(=O)[C@@H]1CCCN1C(=O)[C@H](CCCCN)NC(=O)[C@H](CC(N)=O)NC(=O)[C@H](CC(N)=O)NC(=O)CN)C(C)C)C(=O)O` [GNNKPVYKPQPRPPHPRL] yielded an MIC [18] of 0.031 µM (≈ 0.065 µg/mL), an MIC [19] of 0.031 µM (≈ 0.065 µg/mL) and an MIC [20] of 0.048 µM (≈ 0.101 µg/mL). It also gave an MIC [21] of 0.024 µM (≈ 0.0503 µg/mL), an MIC [22] of 0.034 µM (≈ 0.0712 µg/mL) and an MIC [23] of 0.024 µM (≈ 0.0503 µg/mL). For the same compound, the MIC [24] was 0.034 µM (≈ 0.0712 µg/mL), the MIC [25] was 0.024 µM (≈ 0.0503 µg/mL) and the MIC [26] was 0.017 µM (≈ 0.0356 µg/mL). For the same compound, the MIC [27] was 0.096 µM (≈ 0.201 µg/mL), the MIC [28] was 0.024 µM (≈ 0.0503 µg/mL) and the MIC [29] was 0.024 µM (≈ 0.0503 µg/mL). For the same compound, the MIC [30] was 0.012 µM (≈ 0.0251 µg/mL).
`CC[C@H](C)[C@H](NC(=O)[C@H](CCC(N)=O)NC(=O)CN)C(=O)N[C@H](C(=O)N[C@@H](CC(N)=O)C(=O)N[C@@H](CC(C)C)C(=O)N[C@@H](CCCCN)C(=O)N[C@@H](C)C(=O)N[C@@H](CO)C(=O)N[C@@H](CC(C)C)C(=O)N[C@@H](CC(=O)O)C(=O)N[C@@H](CC(C)C)C(=O)N[C@@H](CC(C)C)C(N)=O)[C@@H](C)CC` [GQIINLKASLDLL] was tested, and the MIC [31] was over 119 µM, the MIC [32] was at least 119 µM and the MIC [33] was at least 143 µM.
`CC(C)C[C@H](NC(=O)CNC(=O)[C@H](Cc1c[nH]c2ccccc12)NC(=O)CNC(=O)[C@H](CC(C)C)NC(=O)[C@H](CCCCN)NC(=O)[C@@H](N)CCCCN)C(=O)N[C@@H](CCCCN)C(=O)N[C@@H](CCCCN)C(N)=O` [KKLGWGLKK] was tested, and the MIC [1] was at least 128 µM, the MIC [34] was over 128 µM and the MIC [2] was over 128 µM. For the same compound, the MIC [31] was over 128 µM, the MIC [3] was over 128 µM and the MIC [35] was at least 128 µM. For the same compound, the MIC [36] was at least 128 µM, the MIC [7] was over 128 µM and the MIC [37] was at least 128 µM. For the same compound, the MIC [38] was at least 128 µM, the MIC [39] was at least 128 µM and the MIC [40] was over 128 µM. The MIC [41] was at least 128 µM, the MIC [42] was at least 128 µM and the MIC [43] was at least 128 µM. For the same compound, the MIC [14] was over 128 µM.
Work on `NCCCC[C@H](NC(=O)CNC(=O)[C@H](Cc1c[nH]c2ccccc12)NC(=O)[C@H](CCCCN)NC(=O)[C@H](CCCCN)NC(=O)CNC(=O)[C@H](Cc1c[nH]c2ccccc12)NC(=O)[C@H](CCCCN)NC(=O)[C@H](CCCCN)NC(=O)CNC(=O)[C@H](Cc1c[nH]c2ccccc12)NC(=O)[C@@H](N)CCCCN)C(N)=O` [KWGKKWGKKWGK] yielded an MIC [44] of 8 µM (≈ 12.1 µg/mL), an MIC [4] of 64 µM (≈ 97 µg/mL) and an MIC [45] of 16 µM (≈ 24.3 µg/mL). For the same compound, the MIC [40] was 4 µM (≈ 6.06 µg/mL), the MIC [46] was 4 µM (≈ 6.06 µg/mL) and the MIC [47] was 8 µM (≈ 12.1 µg/mL).

Reference: DBAASP
